Measured values taken from patent US11485742B2, “2-azaspiro[3.4]octane derivatives as M4 agonists” (NOVARTIS AG, priority 2019, dated 2022).

How the values were obtained:
[1] = target: T1, human cloned CHRM3 receptor (Homo sapiens, UniProt P20309); test: CHRM3 Ca++ Flux Assay (M3_CHO cells, agonist mode); format: cell-based; conditions: for Emax: read-out: M3 FDSS PA %; for EC50: agonist mode, geometric mean if tested more than once, read-out: M3 FDSS EC50
T1 construct: expressed in transfected cells; host or cells: CHO-K1 (M3_CHO)
T1 sequence (P20309 whole entry): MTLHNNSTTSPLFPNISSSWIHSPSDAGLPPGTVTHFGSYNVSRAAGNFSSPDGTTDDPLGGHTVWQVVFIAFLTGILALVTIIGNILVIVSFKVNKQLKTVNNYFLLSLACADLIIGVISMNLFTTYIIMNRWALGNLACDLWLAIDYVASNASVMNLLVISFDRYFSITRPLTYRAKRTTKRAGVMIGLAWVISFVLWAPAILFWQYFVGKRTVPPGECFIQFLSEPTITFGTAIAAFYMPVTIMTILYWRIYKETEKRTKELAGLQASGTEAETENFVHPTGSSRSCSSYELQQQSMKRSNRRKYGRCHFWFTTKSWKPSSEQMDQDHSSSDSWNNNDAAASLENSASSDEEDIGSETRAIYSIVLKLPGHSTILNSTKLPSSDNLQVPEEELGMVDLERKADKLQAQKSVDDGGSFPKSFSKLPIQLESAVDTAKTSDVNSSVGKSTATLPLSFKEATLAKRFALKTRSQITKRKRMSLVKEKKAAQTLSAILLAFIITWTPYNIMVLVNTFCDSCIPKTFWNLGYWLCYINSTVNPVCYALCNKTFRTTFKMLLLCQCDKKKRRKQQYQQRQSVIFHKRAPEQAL
Method in brief: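 CHO-K1 cells stably expressing human M3 or M5 receptor, dye-loaded ≥1 h, treated with 11-point compound doses in triplicate; Ca++ flux read over 3 min (FDSS). Agonist-mode four-parameter fit; percent activity relative to carbachol EC100; repeat tests reported as geometric mean.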

[2] = target: T2, human cloned CHRM4 receptor (Homo sapiens, UniProt P08173); test: CHRM4 Ca++ Flux Assay (M4_CHO cells, agonist mode); format: cell-based; conditions: for Emax: read-out: M4 FDSS PA %; for EC50: geometric mean if tested more than once, read-out: M4 FDSS EC50
T2 construct: expressed in transfected cells; host or cells: CHO-K1 (M4_CHO)
T2 sequence (P08173 1-479): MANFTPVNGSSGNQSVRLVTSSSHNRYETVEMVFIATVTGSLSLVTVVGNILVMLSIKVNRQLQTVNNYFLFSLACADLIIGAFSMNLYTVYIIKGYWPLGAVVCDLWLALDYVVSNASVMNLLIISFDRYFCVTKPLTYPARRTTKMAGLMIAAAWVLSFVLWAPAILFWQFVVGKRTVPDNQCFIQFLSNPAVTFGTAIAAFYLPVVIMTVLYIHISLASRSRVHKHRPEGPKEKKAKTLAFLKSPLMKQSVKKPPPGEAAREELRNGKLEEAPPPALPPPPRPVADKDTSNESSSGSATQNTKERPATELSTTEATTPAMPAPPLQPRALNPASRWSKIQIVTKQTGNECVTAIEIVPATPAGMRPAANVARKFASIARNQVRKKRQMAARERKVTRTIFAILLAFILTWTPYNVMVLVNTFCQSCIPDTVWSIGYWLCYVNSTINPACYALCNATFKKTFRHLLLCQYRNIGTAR
Method in brief: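 CHO-K1 cells stably expressing human M4 were dye-loaded, then held 60 min at RT in Ca/Mg-free HBSS buffer with 20 μM ATP. Ca++ traces were recorded over 3 min after an 11-point compound series in triplicate, agonist mode, with a four-parameter fit. Percent activity is relative to the carbachol EC100; repeat tests are geometric means.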

[3] = Percent Activity (PA) measured to EC100 of Carbachol

| Compound | Emax [1, 3] | EC50 [1] | Emax ([2]; Percent Activity (PA)) | EC50 [2] | M3 FDSS PA % [1, 3] | M4 FDSS PA % ([2]; Percent Activity (PA)) |
| --- | --- | --- | --- | --- | --- | --- |
| Fc1ccc(OCC2C3COCC32)c(C2CCN([C@@H]3COC4(C3)CN(c3nnco3)C4)CC2)c1 (stereo partly drawn) [Example 2Z, (7S)-7-(4-(2-((3-oxabicyclo[3.1.0]hexan-6-yl)methoxy)-5-fluorophenyl)piperidin-1-yl)-2-(1,3,4-oxadiazol-2-yl)-5-oxa-2-azaspiro[3.4]octane] | 0% | > 25000 nM | 51% | 108 nM |  |  |
| Fc1ccc(OC2COC2)c(C2CCN([C@@H]3COC4(C3)CN(c3ncco3)C4)CC2)c1 [Example 4A, (S)-7-(4-(5-fluoro-2-(oxetan-3-yloxy)phenyl)piperidin-1-yl)-2-(oxazol-2-yl)-5-oxa-2-azaspiro[3.4]octane] | 0% | > 25000 nM | 80% | 4 nM |  |  |
| Fc1ccc(OC[C@H]2COCCO2)c(C2CCN([C@@H]3COC4(C3)CN(c3ncco3)C4)CC2)c1 [Example 4B, (S)-7-(4-(2-(((R)-1,4-dioxan-2-yl)methoxy)-5-fluorophenyl)piperidin-1-yl)-2-(oxazol-2-yl)-5-oxa-2-azaspiro[3.4]octane] | 0% | > 25000 nM | 77% | 4 nM |  |  |
| c1ccc(C2CCN([C@@H]3COC4(C3)CN(c3ncco3)C4)CC2)c(OC2COC2)c1 [Example 4C, (S)-2-(oxazol-2-yl)-7-(4-(2-(oxetan-3-yloxy)phenyl)piperidin-1-yl)-5-oxa-2-azaspiro[3.4]octane] | 0% | > 25000 nM | 80% | 7 nM |  |  |
| Fc1ccc(O[C@@H]2CCOC2)c(C2CCN([C@@H]3COC4(C3)CN(c3ncco3)C4)CC2)c1 [Example 4D, (S)-7-(4-(5-fluoro-2-(((R)-tetrahydrofuran-3-yl)oxy)phenyl)piperidin-1-yl)-2-(oxazol-2-yl)-5-oxa-2-azaspiro[3.4]octane] | 0% | > 25000 nM | 77% | 7 nM |  |  |
| Fc1ccc(OC2CC3(COC3)C2)c(C2CCN([C@@H]3COC4(C3)CN(c3ncco3)C4)CC2)c1 [Example 4G, (S)-7-(4-(2-((2-oxaspiro[3.3]heptan-6-yl)oxy)-5-fluorophenyl)piperidin-1-yl)-2-(oxazol-2-yl)-5-oxa-2-azaspiro[3.4]octane] | 0% | > 25000 nM | 68% | 17 nM |  |  |
| COc1ccc(F)cc1C1CCN([C@@H]2COC3(C2)CN(c2ncco2)C3)CC1 [Example 4I, (S)-7-(4-(5-fluoro-2-methoxyphenyl)piperidin-1-yl)-2-(oxazol-2-yl)-5-oxa-2-azaspiro[3.4]octane] | 0% | > 25000 nM | 73% | 19 nM |  |  |
| CC(C)(O)COc1ccc(F)cc1C1CCN([C@@H]2COC3(C2)CN(c2ncco2)C3)CC1 [Example 4K, (S)-1-(4-fluoro-2-(1-(2-(oxazol-2-yl)-5-oxa-2-azaspiro[3.4]octan-7-yl)piperidin-4-yl)phenoxy)-2-methylpropan-2-ol] | 0% | > 25000 nM | 66% | 25 nM |  |  |
| COCCOc1ccc(F)cc1C1CCN([C@@H]2COC3(C2)CN(c2ncco2)C3)CC1 [Example 4L, (S)-7-(4-(5-fluoro-2-(2-methoxyethoxy)phenyl)piperidin-1-yl)-2-(oxazol-2-yl)-5-oxa-2-azaspiro[3.4]octane] | 0% | > 25000 nM | 52% | 27 nM |  |  |
| c1ccc(C2CCN([C@@H]3COC4(C3)CN(c3ncco3)C4)CC2)c(OC2CC3(COC3)C2)c1 [Example 4M, (S)-7-(4-(2-((2-oxaspiro[3.3]heptan-6-yl)oxy)phenyl)piperidin-1-yl)-2-(oxazol-2-yl)-5-oxa-2-azaspiro[3.4]octane] | 0% | > 25000 nM | 82% | 86 nM |  |  |
| COc1ccccc1C1CCN([C@@H]2COC3(C2)CN(c2ncco2)C3)CC1 [Example 4N, (S)-7-(4-(2-methoxyphenyl)piperidin-1-yl)-2-(oxazol-2-yl)-5-oxa-2-azaspiro[3.4]octane] | 0% | > 25000 nM | 74% | 93 nM |  |  |
| Fc1cc(OCC2COC2)c(C2CCN([C@@H]3COC4(C3)CN(c3ncco3)C4)CC2)cc1F [Example 4O, (S)-7-(4-(4,5-difluoro-2-(oxetan-3-ylmethoxy)phenyl)piperidin-1-yl)-2-(oxazol-2-yl)-5-oxa-2-azaspiro[3.4]octane] | 0% | > 25000 nM | 58% | 7 nM |  |  |
| Fc1cc(OCC2(F)COC2)c(C2CCN([C@@H]3COC4(C3)CN(c3ncco3)C4)CC2)cc1F [Example 4P, (S)-7-(4-(4,5-difluoro-2-((3-fluorooxetan-3-yl)methoxy)phenyl)piperidin-1-yl)-2-(oxazol-2-yl)-5-oxa-2-azaspiro[3.4]octane] | 0% | > 25000 nM | 63% | 5 nM |  |  |

Results, then the compound that gave them:

| Emax [1, 3] | EC50 [1] | Emax ([2]; Percent Activity (PA)) | EC50 [2] | M3 FDSS PA % [1, 3] | M4 FDSS PA % ([2]; Percent Activity (PA)) | Compound |
| --- | --- | --- | --- | --- | --- | --- |
| 0% | > 25000 nM | 58% | 87 nM |  |  | Fc1cc(OC2CCOCC2)c(C2CCN([C@@H]3COC4(C3)CN(c3nnco3)C4)CC2)cc1F [Example 2GG, (S)-7-(4-(4,5-difluoro-2-((tetrahydro-2H-pyran-4-yl)oxy)phenyl)piperidin-1-yl)-2-(1,3,4-oxadiazol-2-yl)-5-oxa-2-azaspiro[3.4]octane] |
|  | > 25000 nM |  | 1780 nM | 0% | 40% | C[C@H](Oc1ccc(F)cc1C1CCN([C@@H]2COC3(C2)CN(c2nnco2)C3)CC1)C1CCOCC1 [Example 2X, (S)-7-(4-(5-fluoro-2-((S)-1-(tetrahydro-2H-pyran-4-yl)ethoxy)phenyl)piperidin-1-yl)-2-(1,3,4-oxadiazol-2-yl)-5-oxa-2-azaspiro[3.4]octane or(S)-7-(4-(5-fluoro-2-((R)-1-(tetrahydro-2H-pyran-4-yl)ethoxy)phenyl)piperidin-1-yl)-2-(1,3,4-oxadiazol-2-yl)-5-oxa-2-azaspiro[3.4]octane] |
| 0% | > 25000 nM | 85% | 184 nM |  |  | c1ccc(C2CCN([C@@H]3COC4(C3)CN(c3nnco3)C4)CC2)c(C2CCOCC2)c1 [Example 3C, (S)-2-(1,3,4-oxadiazol-2-yl)-7-(4-(2-(tetrahydro-2H-pyran-4-yl)phenyl)piperidin-1-yl)-5-oxa-2-azaspiro[3.4]octane] |
| 0% | > 25000 nM | 84% | 63 nM |  |  | Fc1ccc(C2CCOCC2)c(C2CCN([C@@H]3COC4(C3)CN(c3nnco3)C4)CC2)c1 [Example 3D, (S)-7-(4-(5-fluoro-2-(tetrahydro-2H-pyran-4-yl)phenyl)piperidin-1-yl)-2-(1,3,4-oxadiazol-2-yl)-5-oxa-2-azaspiro[3.4]octane] |
| 0% | > 25000 nM | 82% | 185 nM |  |  | c1ccc(C2CCN([C@@H]3COC4(C3)CN(c3nnco3)C4)CC2)c(CC2CCOCC2)c1 [Example 3G, (S)-2-(1,3,4-oxadiazol-2-yl)-7-(4-(2-((tetrahydro-2H-pyran-4-yl)methyl)phenyl)piperidin-1-yl)-5-oxa-2-azaspiro[3.4]octane] |
| 0% | > 25000 nM | 81% | 12 nM |  |  | Fc1ccc(OC2CCOCC2)c(C2CCN([C@@H]3COC4(C3)CN(c3ncco3)C4)CC2)c1 [Example 4E, (S)-7-(4-(5-fluoro-2-((tetrahydro-2H-pyran-4-yl)oxy)phenyl)piperidin-1-yl)-2-(oxazol-2-yl)-5-oxa-2-azaspiro[3.4]octane] |
| 0% | > 25000 nM | 80% | 15 nM |  |  | c1ccc(C2CCN([C@@H]3COC4(C3)CN(c3ncco3)C4)CC2)c(O[C@@H]2CCOC2)c1 [Example 4F, (S)-2-(oxazol-2-yl)-7-(4-(2-(((R)-tetrahydrofuran-3-yl)oxy)phenyl)piperidin-1-yl)-5-oxa-2-azaspiro[3.4]octane] |
| 0% | > 25000 nM | 69% | 17 nM |  |  | c1ccc(C2CCN([C@@H]3COC4(C3)CN(c3ncco3)C4)CC2)c(O[C@H]2CCOC2)c1 [Example 4H, (S)-2-(oxazol-2-yl)-7-(4-(2-(((S)-tetrahydrofuran-3-yl)oxy)phenyl)piperidin-1-yl)-5-oxa-2-azaspiro[3.4]octane] |
| 0% | > 25000 nM | 82% | 30 nM |  |  | c1ccc(C2CCN([C@@H]3COC4(C3)CN(c3ncco3)C4)CC2)c(OC2CCOCC2)c1 [Example 4J, (S)-2-(oxazol-2-yl)-7-(4-(2-((tetrahydro-2H-pyran-4-yl)oxy)phenyl)piperidin-1-yl)-5-oxa-2-azaspiro[3.4]octane] |
